Results on one compound are retold here after patent US6890954B1, “Uses of 2-bromopalmitate in the treatment of autoimmune disease” (priority 1999, dated 2005).

What all share (assay type): cell-based
Experiment [1] relates to Fyn. Briefly: Localization of Fyn to Triton X-100 insoluble fractions in COS-1 cells. The following applies: COS-1, 1% Triton X-100 extraction; untreated: majority detergent resistant. The protocol:
Isolation of Triton X-100 resistant and soluble fractions was carried out as described previously (12). Isolation of detergent resistant microdomains by sucrose gradients were carried out as follows (19): Jurkat cells (5×10^7) were treated with 2-bromopalmitate, activated with OKT3 mAb as described above, and lysed in 1 ml lysis buffer (25 mM MES pH 6.5, 150 mM NaCl, 0.5% Triton X-100, 1 mM Na3VO4) supplemented with protease inhibitors for 30 minutes at 0° C. After homogenizing 10 times with a loose fit Dounce homogenizer, lysates were mixed with 1 ml 85% sucrose in MBS (25 mM MES pH 6.5, 150 mM NaCl), and overlayered with 6 ml 30% sucrose in MBS, then with 4 ml 5% sucrose in MBS. Following centrifugation for 16 hours at 145,000 g in an SW40 rotor, 1 ml fractions were collected and analyzed by PAGE and immunoblotting with anti-Fyn, anti-LAT, or anti-Lck antibodies.
Previous experiments have shown that following rapid membrane binding of newly synthesized Fyn, there is a slower partitioning of Fyn (10-20 minutes) to regions of the plasma membrane that are resistant to Triton X-100 extraction at 4° C. (12). Therefore the effect of 2-bromopalmitate on the localization of Fyn to Triton X-100 insoluble fractions was examined. Transfected COS-1 cells were left untreated or treated with 2-bromopalmitate as described above. […]

The target of experiment [2] is T1, Fyn (Homo sapiens, UniProt P06241).
T1 construct: expressed in transfected cells; host or cells: COS-1
T1 sequence (P06241 whole entry, species assumed): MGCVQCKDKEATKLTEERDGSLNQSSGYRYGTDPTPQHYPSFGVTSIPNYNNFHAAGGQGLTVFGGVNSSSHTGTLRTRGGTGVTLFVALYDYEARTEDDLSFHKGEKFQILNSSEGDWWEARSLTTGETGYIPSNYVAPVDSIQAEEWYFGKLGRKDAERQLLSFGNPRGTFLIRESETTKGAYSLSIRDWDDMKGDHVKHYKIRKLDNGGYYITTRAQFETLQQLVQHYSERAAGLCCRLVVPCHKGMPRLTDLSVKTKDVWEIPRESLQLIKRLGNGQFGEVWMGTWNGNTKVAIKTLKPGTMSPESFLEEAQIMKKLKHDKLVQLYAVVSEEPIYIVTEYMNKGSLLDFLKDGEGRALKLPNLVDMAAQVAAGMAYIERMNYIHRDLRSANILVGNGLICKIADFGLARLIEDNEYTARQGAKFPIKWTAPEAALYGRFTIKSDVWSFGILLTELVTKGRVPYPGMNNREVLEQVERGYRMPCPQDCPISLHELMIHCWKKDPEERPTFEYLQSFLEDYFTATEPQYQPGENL
In words: Fyn fatty acylation (IC13/IC16) in transfected Jurkat T cells. The following applies: 100 μM, 3 hours preincubation. The protocol: The syntheses of 13-[^125I]-iodotridecanoic acid (IC13)or 16-[^125I]-iodohexanoic acid (IC16) were carried out as described previously (39). Cell labeling was carried out as described (12,13) with modifications. Briefly, each 60 mm plate of Fyn transfected COS-1 cells was incubated O/N in DMEM containing 2.5% FBS, 0.5% defatted BSA (Sigma) with or without 100 μM 2-bromopalmitate or 50 μM polyunsaturated fatty acid. Prior to labeling, the cells were incubated for 1 hr with 1 ml of DMEM containing 2% dialyzed FBS, then labeled for 4 hours with 25-50 μCi IC13 or IC16 in DMEM containing 2% dialyzed FBS, 0.5% defatted BSA with or without 2-bromopalmitate or polyunsaturated fatty acid. Labeled cells were washed three times with cold STE (100 mM NaCl, 10 mM Tris pH 7.4, 1 mM EDTA) and lysed in 0.6 ml of cold RIPA buffer containing protease inhibitors (10 μg/ml each of benzamidine, AEBSF, TPCK and TLCK, 1.5 μg/ml each of Leupeptin, Pepstatin A and Aprotinin). Lysates were clarified at 100,000×g for 15 min at 4° C. in a Beckman TL-100 ultracentrifuge. […] Gels were dried between cellophane and analyzed by phosphorimaging after 12-36 hours exposure. […]
The Src family kinases Fyn and Lck play critical roles in T cell receptor (TCR) mediated signaling. […] Total protein levels were monitored by immunoprecipitation followed by immunoblotting with anti-Fyn antibody.

The subject of the next experiment is Vav. In words: CD3-mediated tyrosine phosphorylation of Vav in Jurkat cells. As to conditions: 100 μM 3 hours, OKT3. The procedure:
(§1) Jurkat T cells (2×10^6−1×10^7) were centrifuged at 1,000×g for 5 minutes, rinsed with RPMI, resuspended in RPMI supplemented with 2% dialyzed FBS, 0.5% defatted BSA, and incubated with or without 100 μM 2-bromopalmitate at 8×10^5 cells/ml for 3 hours. The cells were centrifuged, washed with RPMI and resuspended in RPMI at 1×10^7−1×10^8 cells/ml. The cells were then activated with anti-CD3 OKT3 mAb (0.3 mg/ml) for 3 min at 37° C., quickly spun down, washed once with cold RPMI and once with cold STE, and lysed in RIPA Samples were solubilized in 1× sample buffer containing 5% β-mercaptoethanol and subjected to SDS-PAGE, followed by immunoblotting with anti-phosphotyrosine antibody (PY99). For analysis of specific proteins, RIPA lysates were immunoprecipitated with the specific antibodies O/N, and immunoblotted for phosphotyrosine. Alternatively, proteins were immunoprecipitated with agarose-conjugated anti phosphotyrosine antibody and blotted for the specific proteins.
(§2) In order to identify the individual proteins whose tyrosine phosphorylation is affected by 2-bromopalmitate, lysates were immunoprecipitated with a panel of specific antibodies, and immunoblotted for phosphotyrosine. Alternatively, lysates were immunoprecipitated with an antiphosphotyrosine antibody, and blotted with antibodies to specific proteins.

The subject of a further experiment is PLC-γl. Briefly: CD3-mediated tyrosine phosphorylation of PLC-γl in Jurkat cells. The following applies: 100 μM 3 hours, OKT3. The procedure: as §1, §2
Experiment [3] addresses T1, Fyn. Briefly: Fyn fatty acylation (IC13/IC16 incorporation) in transfected COS-1 cells. As to conditions: COS-1 cells, 100 μM 2-bromopalmitate, normalized for total protein levels. The protocol: The syntheses of 13-[^125I]-iodotridecanoic acid (IC13)or 16-[^125I]-iodohexanoic acid (IC16) were carried out as described previously (39). Cell labeling was carried out as described (12,13) with modifications. Briefly, each 60 mm plate of Fyn transfected COS-1 cells was incubated O/N in DMEM containing 2.5% FBS, 0.5% defatted BSA (Sigma) with or without 100 μM 2-bromopalmitate or 50 μM polyunsaturated fatty acid. Prior to labeling, the cells were incubated for 1 hr with 1 ml of DMEM containing 2% dialyzed FBS, then labeled for 4 hours with 25-50 μCi IC13 or IC16 in DMEM containing 2% dialyzed FBS, 0.5% defatted BSA with or without 2-bromopalmitate or polyunsaturated fatty acid. Labeled cells were washed three times with cold STE (100 mM NaCl, 10 mM Tris pH 7.4, 1 mM EDTA) and lysed in 0.6 ml of cold RIPA buffer containing protease inhibitors (10 μg/ml each of benzamidine, AEBSF, TPCK and TLCK, 1.5 μg/ml each of Leupeptin, Pepstatin A and Aprotinin). Lysates were clarified at 100,000×g for 15 min at 4° C. in a Beckman TL-100 ultracentrifuge. Lysates were immunoprecipitated with rabbit anti-Fyn antibody and protein A-agarose. Immunoprecipitates were washed three times with cold RIPA buffer and suspended in 1× sample buffer containing 100 mM dithiothreitol and subjected to SDS-PAGE. Gels were dried between cellophane and analyzed by phosphorimaging after 12-36 hours exposure. Experiments in Jurkat T cells were carried out according to the above protocol using 2×10^7 cells per experiment, and reducing the incubation time with 2-bromopalmitate to 3-4 hours.
A number of palmitic acid analogs were screened for their ability to inhibit Fyn palmitoylation. COS-1 cells were transfected with cDNA encoding Fyn. Three days after transfection, the cells were labeled with either [^35S]-methionine, 13-[^125I]-iodotridecanoic acid (IC13), an iodinated myristate analog, or 16-[^125I]-iodohexanoic acid (IC16), an iodinated palmitic acid analog (39), in the presence or absence of nonradioactive palmitate analogs. Cells were lysed, immunoprecipitated with anti-Fyn antibody, and analyzed by SDS-PAGE and phosphorimaging. […] When normalized for total protein levels, 70% of Fyn myristoylation and over 90% of Fyn palmitoylation was inhibited in the presence of 2-bromopalmitate. Treatment of cells with other analogs, including 2-hydroxypalmitate, palmitoleic acid and 16-hydroxypalmitate had no effect (data not shown).
To test this hypothesis, Fyn transfected COS-1 cells were incubated O/N with or without 50 μM arachidonic acid (20:4) or eicosapentaenoic acid (20:5), then labeled with IC13 or IC16. Total protein levels were monitored by immunoblotting aliquots of each sample with anti-Fyn antibody (FIG. 8A, lower panel).

In the case of `CCCCCCCCCCCCCCC(Br)C(=O)O` (stereo not shown) [2-bromopalmitate], the “Fyn association with detergent resistant vs soluble fraction” value in the experiment with Fyn [1] is recorded as “mostly soluble”. Further, the “Fyn myristoylation inhibited relative to untreated controls” value at Fyn [2] (IC13) is on record as 75%. Also, at Fyn [2] (IC16), the “Fyn palmitoylation inhibited relative to untreated controls” value was determined as 90%. The Vav phosphorylation inhibited in the experiment on Vav was found to be 40%. In the experiment with PLC-γl, this compound gave a PLC-γl phosphorylation inhibited of 70%. For the same compound, at Fyn [3] (IC13 label), the Fyn myristoylation inhibited amounted to 70%. Further, the Fyn palmitoylation inhibited entry on Fyn [3] (IC16 label) is “over 90%”.
